Patent US12435061B2 (priority 2020, dated 2025)
Where a name gives a salt, the structure may show the parent alone. Read-outs that look alike come from different tables or passages of the source.

Biological target: hTRPV3 (Homo sapiens (Human), UniProt Q8NET8)
Assay: Whole-cell patch clamp, hTRPV3 Phase 1 / Phase 2 currents
Assay type: cell-based
How it was run: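 Whole-cell recordings on induced TRPV3 cells replated on coverslips, held at −40 mV with 400 ms ramps from −120 to +100 mV every 5 s; currents read at −80 and +80 mV. Ringer's external solution; current activated by heating to ≥28 °C or 20 μM 2-APB.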

[1] = Phase 1 current, inward, whole-cell patch clamp, read-out: hTRPV3 Patch P1 Inwd
[2] = Phase 1 current, read-out: hTRPV3 (nM) (Phase 1)
[3] = Phase 2 current, inward, whole-cell patch clamp, read-out: hTRPV3 Patch P2 Inwd
[4] = Phase 2 current, read-out: hTRPV3 (nM) (Phase 2)
[5] = Phase 1 current, human TRPV3, read-out: hTRPV3 (nM) Phase 1

Sequence of hTRPV3 (Q8NET8 whole entry): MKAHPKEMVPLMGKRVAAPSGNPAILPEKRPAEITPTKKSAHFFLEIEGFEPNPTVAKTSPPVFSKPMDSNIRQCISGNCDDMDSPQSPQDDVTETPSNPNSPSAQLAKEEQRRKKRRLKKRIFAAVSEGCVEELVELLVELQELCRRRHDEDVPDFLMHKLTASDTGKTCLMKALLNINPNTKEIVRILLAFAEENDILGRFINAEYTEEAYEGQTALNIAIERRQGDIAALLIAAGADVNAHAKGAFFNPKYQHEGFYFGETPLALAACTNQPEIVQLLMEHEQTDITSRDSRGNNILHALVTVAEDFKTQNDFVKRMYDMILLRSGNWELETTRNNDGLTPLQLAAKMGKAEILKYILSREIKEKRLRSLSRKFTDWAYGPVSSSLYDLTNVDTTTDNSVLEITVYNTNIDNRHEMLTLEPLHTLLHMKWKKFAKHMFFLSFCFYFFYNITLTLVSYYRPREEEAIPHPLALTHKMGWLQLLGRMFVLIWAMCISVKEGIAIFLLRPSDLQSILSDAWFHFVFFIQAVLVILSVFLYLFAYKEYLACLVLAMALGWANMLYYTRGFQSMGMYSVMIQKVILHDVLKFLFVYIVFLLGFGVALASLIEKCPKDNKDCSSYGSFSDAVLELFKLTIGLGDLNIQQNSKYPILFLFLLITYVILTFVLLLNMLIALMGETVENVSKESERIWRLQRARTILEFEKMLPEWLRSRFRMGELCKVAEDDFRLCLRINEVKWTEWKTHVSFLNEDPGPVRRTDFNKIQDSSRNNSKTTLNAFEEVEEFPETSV

CC(C)(C)OC(=O)NCc1ccc(-c2ccc(N3CC[C@H](Oc4ccc(C(F)(F)F)cn4)C3)c(CO)c2)cc1 [Compound 1-269, (S)-tert-butyl (3′-(hydroxymethyl)-4′-(3-(5-(trifluoromethyl)pyridin-2-yloxy)pyrrolidin-1-yl)biphenyl-4-yl)methylcarbamate]
IC50 [1]: > 1000 nM
IC50 [2]: > 3200 nM

CC(C)c1ccccc1Oc1ccc(N2CC[C@H](Oc3ccc(C#N)cn3)C2)c(CO)c1 [Compound 1-353]
IC50 [1]: 10 to 100 nM
IC50 [2]: 26.8 nM

OCc1cc(C(O)c2ccc(F)cc2)ccc1N1CC[C@H](Oc2ncccc2Cl)C1 (stereo partly drawn) [Compound 1-278, (4-((S)-3-(3-chloropyridin-2-yloxy)pyrrolidin-1-yl)-3-(hydroxymethyl)phenyl)(4-fluorophenyl)methanol]
IC50 [1]: 100 to 1000 nM
IC50 [2]: 254 nM

OCc1cc(Oc2ccc(Cl)c(Cl)c2)ccc1N1CC[C@H](Oc2ccccn2)C1 [Compound 1-344]
IC50 [1]: 10 to 100 nM
IC50 [2]: 65.3 nM

Cc1ccc(C(O)c2ccc(N3CC[C@H](Oc4ncccc4Cl)C3)c(CO)c2)cc1 (stereo partly drawn) [Compound 1-287, (4-((S)-3-(3-chloropyridin-2-yloxy)pyrrolidin-1-yl)-3-(hydroxymethyl)phenyl)(p-tolyl)methanol]
IC50 [1]: 100 to 1000 nM
IC50 [2]: 674 nM

COCc1ccccc1Oc1ccc(N2CC[C@H](Oc3ccc(F)cn3)C2)c(CCO)c1 [Compound 1-341, (S)-2-(2-(3-(5-fluoropyridin-2-yloxy)pyrrolidin-1-yl)-5-(2-(methoxymethyl)phenoxy)phenyl)ethanol]
IC50 [1]: 100 to 1000 nM
IC50 [2]: 877 nM
IC50 [3]: 100 to 1000 nM
IC50 [4]: 748 nM

Cc1cccnc1O[C@H]1CCN(c2ccc(-c3ccccc3Cl)cc2C(C)O)C1 (stereo partly drawn) [Compound 1-172, 1-(2′-chloro-4-((S)-3-(3-methylpyridin-2-yloxy)pyrrolidin-1-yl)biphenyl-3-yl)ethanol]
IC50 [1]: 100 to 1000 nM
IC50 [2]: 882 nM

O=C(c1ccc(Cl)cc1)c1ccc(N2CC[C@H](Oc3ncccc3Cl)C2)c(CO)c1 [Compound 1-288, (S)-(4-chlorophenyl)(4-(3-(3-chloropyridin-2-yloxy)pyrrolidin-1-yl)-3-(hydroxymethyl)phenyl)methanone]
IC50 [1]: 10 to 100 nM

Cc1ccc(C(O)c2ccc(N3CC[C@H](Oc4ncccc4Cl)C3)c(CCO)c2)cc1 (stereo partly drawn) [Compound 1-310, 2-(2-((S)-3-(3-chloropyridin-2-yloxy)pyrrolidin-1-yl)-5-(hydroxy(p-tolyl)methyl)phenyl)ethanol]
IC50 [1]: > 1000 nM
IC50 [2]: 4200 nM

OCCc1cc(Oc2ccccc2F)ccc1N1CC[C@H](Oc2ccccn2)C1 [Compound 1-334]
IC50 [1]: 100 to 1000 nM
IC50 [2]: 289 nM
IC50 [3]: 100 to 1000 nM
IC50 [4]: ~243 nM

O=C(c1ccccc1N1CC[C@H](Oc2ccc(C(F)(F)F)cn2)C1)N(Cc1ccccc1)Cc1ccccc1 [Compound 1-52, (S)—N,N-dibenzyl-2-(3-(5-(trifluoromethyl)pyridin-2-yloxy)pyrrolidin-1-yl)benzamide]
IC50 [1]: > 1000 nM

COc1ccccc1Oc1ccc(N2CC[C@H](Oc3ccccn3)C2)c(CO)c1 [Compound 1-339, (S)-(5-(2-methoxyphenoxy)-2-(3-(pyridin-2-yloxy)pyrrolidin-1-yl)phenyl)methanol]
IC50 [1]: 100 to 1000 nM
IC50 [2]: 521 nM

NC(=O)c1cc(-c2ccccn2)ccc1N1CC[C@@H](Oc2ncccc2Cl)C1 [Compound 1-85, (R)-2-(3-(3-chloropyridin-2-yloxy)pyrrolidin-1-yl)-5-(pyridin-2-yl)benzamide]
IC50 [1]: > 1000 nM
IC50 [2]: 3480 nM

OCc1nc(Oc2ccccc2)ccc1N1CC[C@H](Oc2ccc(C(F)(F)F)cn2)C1 [Compound 1-199, (S)-(6-phenoxy-3-(3-(5-(trifluoromethyl)pyridin-2-yloxy)pyrrolidin-1-yl)pyridin-2-yl)methanol]
IC50 (hTRPV3 Patch P1 Inwd (nM)): > 1000 nM
IC50 (hTRPV3 Patch P2 Inwd (nM)): > 1000 nM
IC50 (read-out: hTRPV3 (nM) (Phase 1)): > 3200 nM
IC50 (read-out: hTRPV3 (nM) (Phase 2)): > 3200 nM

CCc1ccccc1Oc1ccc(C2CCN(C(=O)c3cccc(C)n3)C2)c(C(N)=O)c1 (stereo not shown) [Compound 2-40, 5-(2-ethylphenoxy)-2-(1-(6-methylpicolinoyl)pyrrolidin-3-yl)benzamide]
IC50 [5]: 4900 nM
IC50 [1]: > 1000 nM

O=C(c1ccc(N2CC[C@H](Nc3ccc(F)cn3)C2)c(CCO)c1)c1ccccc1Cl [Compound 1-389, (S)-(2-chlorophenyl)(4-(3-(5-fluoropyridin-2-ylamino)pyrrolidin-1-yl)-3-(2-hydroxyethyl)phenyl)methanone]
IC50 [1]: > 1000 nM
IC50 [2]: > 3200 nM

CC(C)Oc1ccccc1N1CC[C@H](Oc2ccc(C(F)(F)F)cn2)C1 [Compound 1-15, (S)-2-(1-(2-isopropoxyphenyl)pyrrolidin-3-yloxy)-5-(trifluoromethyl)pyridine]
IC50 [1]: > 1000 nM
IC50 [3]: > 1000 nM

O=C(c1ccc(F)cc1)c1ccc(N2CC[C@H](Oc3ncccc3Cl)C2)c(CCO)c1 [Compound 1-315, (S)-(4-(3-(3-chloropyridin-2-yloxy)pyrrolidin-1-yl)-3-(2-hydroxyethyl)phenyl)(4-fluorophenyl)methanone]
IC50 [1]: > 1000 nM
IC50 [2]: 1260 nM

CC(C)c1ccccc1-c1ccc(C2CCN(C(=O)c3ncccc3Cl)C2)c(C(N)=O)c1 (stereo not shown) [Compound 2-41]
IC50 [5]: 575 nM
IC50 [1]: 100 to 1000 nM

N#Cc1ccc(N2CC[C@H](Oc3ccc(C(F)(F)F)cn3)C2)c(C(N)=O)c1 [Compound 1-23, (S)-5-cyano-2-(3-(5-(trifluoromethyl)pyridin-2-yloxy)pyrrolidin-1-yl)benzamide]
IC50 [1]: > 1000 nM

CCc1ccccc1-c1ccc(N2CC[C@H](Oc3ccc(F)cn3)C2)c(CO)n1 [Compound 1-208]
IC50 [1]: > 1000 nM
IC50 [3]: 100 to 1000 nM

N#Cc1ccccc1N1CC[C@@H](Oc2ccc(C(F)(F)F)cn2)C1 [Compound 1-9, (R)-2-(3-(5-(trifluoromethyl)pyridin-2-yloxy)pyrrolidin-1-yl)benzonitrile]
IC50 [1]: > 1000 nM

OCCc1cc(C(O)c2ccc(Cl)cc2)ccc1N1CC[C@H](Nc2ccc(F)cn2)C1 (stereo partly drawn) [Compound 1-391, 2-(5-((4-chlorophenyl)(hydroxy)methyl)-2-((S)-3-(5-fluoropyridin-2-ylamino)pyrrolidin-1-yl)phenyl)ethanol]
IC50 [1]: > 1000 nM
IC50 [2]: > 3200 nM

NC(=O)c1cc(-c2ccccc2)ccc1N1CC[C@H](Nc2ncccc2Cl)C1 [Compound 1-373, (S)-4-(3-(3-chloropyridin-2-ylamino)pyrrolidin-1-yl)biphenyl-3-carboxamide]
IC50 [3]: 100 to 1000 nM
IC50 [4]: 669 nM

NC(=O)c1cc(Cc2ccccc2)ccc1N1CC[C@H](Oc2ncccc2Cl)C1 [Compound 1-145, (S)-5-benzyl-2-(3-(3-chloropyridin-2-yloxy)pyrrolidin-1-yl)benzamide]
IC50 [1]: > 1000 nM
IC50 [2]: 1950 nM
IC50 [3]: 100 to 1000 nM
IC50 [4]: 749 nM

Cc1ccccc1-c1ccc(N2CC[C@H](Oc3ccc(Cl)cn3)C2)c(CO)n1 [Compound 1-195, (S)-(3-(3-(5-chloropyridin-2-yloxy)pyrrolidin-1-yl)-6-o-tolylpyridin-2-yl)methanol]
IC50 [1]: 100 to 1000 nM
IC50 [2]: 106 nM
IC50 [3]: 10 to 100 nM
IC50 [4]: 71.3 nM

NCc1ccc(N2CC[C@H](Oc3ccc(C(F)(F)F)cn3)C2)c(C(N)=O)c1 [Compound 1-35]
IC50 [1]: > 1000 nM

Cc1cccc(C(O)c2ccc(C3CCN(C(=O)c4ncccc4Cl)C3)c(CO)c2)c1 (stereo not shown) [Compound 2-2, (3-chloropyridin-2-yl)(3-(4-(hydroxy(m-tolyl)methyl)-2-(hydroxymethyl)phenyl)pyrrolidin-1-yl)methanone]
IC50 [1]: 100 to 1000 nM

CC(C)c1ccccc1Oc1ccc(C2CCN(Cc3ncccc3Cl)C2)c(CO)c1 (stereo not shown) [Compound 2-92, (2-(1-((3-chloropyridin-2-yl)methyl)pyrrolidin-3-yl)-5-(2-isopropylphenoxy)phenyl)methanol hydrochloride]
IC50 [5]: 592 nM
IC50 [1]: 100 to 1000 nM

NC(=O)c1cc(-c2ccccc2)cnc1N1CC[C@H](Nc2ccc(C(F)(F)F)cn2)C1 [Compound 1-374, (S)-5-phenyl-2-(3-(5-(trifluoromethyl)pyridin-2-ylamino)pyrrolidin-1-yl)nicotinamide]
IC50 [1]: > 1000 nM
IC50 [2]: > 3200 nM
IC50 [3]: > 1000 nM
IC50 [4]: > 3200 nM

CC(C)c1ccccc1Oc1ccc(C2CCN(Cc3ccc(Cl)cn3)C2)c(CO)c1 (stereo not shown) [Compound 2-91, (2-(1-((5-chloropyridin-2-yl)methyl)pyrrolidin-3-yl)-5-(2-isopropylphenoxy)phenyl)methanol]
IC50 [5]: 325 nM
IC50 [1]: 100 to 1000 nM

Cc1ccc(CN2CCC(c3ccc(Oc4ccccc4C(C)C)cc3CO)C2)nc1 (stereo not shown) [Compound 2-90, (5-(2-isopropylphenoxy)-2-(1-((5-methylpyridin-2-yl)methyl)pyrrolidin-3-yl)phenyl)methanol hydrochloride]
IC50 [5]: 812 nM
IC50 [1]: 100 to 1000 nM

CC(C)(C)OC(=O)N1CCC(c2ccc(N3CC[C@H](Oc4ccc(C(F)(F)F)cn4)C3)c(CCO)c2)CC1 [Compound 1-301, (S)-tert-butyl 4-(3-(2-hydroxyethyl)-4-(3-(5-(trifluoromethyl)pyridin-2-yloxy)pyrrolidin-1-yl)phenyl)piperidine-1-carboxylate]
IC50 [1]: > 1000 nM
IC50 [2]: ~2980 nM

COC(C)c1ccccc1Oc1ccc(N2CC[C@H](Oc3ccccn3)C2)c(CCO)c1 (stereo partly drawn) [Compound 1-357, 2-(5-(2-(1-methoxyethyl)phenoxy)-2-((S)-3(pyridin-2-yloxy)pyrrolidin-1-yl)phenyl)ethanol]
IC50 [1]: 100 to 1000 nM
IC50 [2]: 312 nM

N#Cc1ccc(-c2ccccc2)cc1N1CC[C@H](Oc2ccc(C(F)(F)F)cn2)C1 [Compound 1-62, (S)-3-(3-(5-(trifluoromethyl)pyridin-2-yloxy)pyrrolidin-1-yl)biphenyl-4-carbonitrile]
IC50 [1]: > 1000 nM
IC50 [3]: > 1000 nM
